Laboratory results: patent publication US20020032581A1, “Single-patient drug trials used with accumulated database: risk of habituation” (priority 2000, published 2002)
Structures can show the parent of a compound that is named as a salt.

Legend:
[1] = test system: patient with perennial allergic rhinitis; conditions: for incidence of sedation: day 4 of treatment
[2] = test system: patients with allergic rhinitis; test: database follow-up of similar patients placed on CM; assay type: in vivo, human; conditions: year long follow-up
Experimental: It is determined that they are a candidate for the individual patient formulary management control system. They are considered a candidate because there are similar patients, e.g. 50, in the database, and 40 of them are placed on CM rather than CL based upon the outcome of single-patient drug trials. […] If CL is found to be more acceptable considering the safety, effectiveness and desirability data of the individual patient questionnaire, the co-pay is the same low rate as for CM.

[3] = test system: individual patient; test: SPAS single-patient abuse potential test (liking score); conditions: for difference of liking score vs placebo: drug minus placebo; for liking score: on drug, codeine: person, diazepam: person, nicotine: person, on average
Experimental: Single-patient drug kits can be designed to test for “liking scores,” “abuse potential scores,” and patient's desire to re-use the test article compared to placebo and positive controls.
In this example, the abuse potential of the narcotic analgesic codeine is tested. A single-patient trial is conducted in a patient for whom treatment with codeine is deemed appropriate. The patient receives a SPAS test kit containing codeine, an alternative drug, e.g., ibuprofen and a questionnaire designed to elicit the liking score, desirability to re-use test article and abuse potential of the patient to codeine.
In another example, in follow-up to the test above, the clinician compares diazepam to secobarbital in the same patient.

[4] = test system: previously tested patients; test: follow-up of previously tested similar patients for addiction / smoking; conditions: for level of addiction on follow-up of similar patients: human, in vivo
[5] = test system: hyperactive child; test: single-patient drug trial of methylphenidate vs placebo (SPAS kit, parent/school questionnaires); assay type: in vivo, human
Experimental: The usefulness of methylphenidate (Ritalin) treatment in a hyperactive child (Minimum Brain Dysfunction or Attention Deficit Disorder) is evaluated.
Consists of instructions, “calendar” packaging for drug and a substantially identical looking placebo to assure appropriate dosing and monitoring of compliance, questionnaires and assessment forms and instructions. Completed forms are sent to a neutral observer who has previously assigned the randomized, multiple-crossover schedule of drug and placebo periods. Only the observer has access to when active drug and placebo are taken and only the observer analyzes the data (exception: open-label or single-blind trials). Results are mailed to the physician and, in this case, parent for use in evaluating the usefulness of the therapy. The physician and parent are contacted, e.g., every three months to provide data on therapies utilized, and perceived outcome, until the condition is resolved. The data is also added to a post-marketing surveillance database for use in evaluating future individual study results, and for access by drug companies, regulatory agencies, and health care organizations.
The questionnaire portion of the kit includes an initial consent form for the parent or guardian to complete. The questionnaire also provides background information on the study and possible side effects associated with the medication. Also included therein is a form for providing relevant patient and family histories. More importantly, the questionnaire, in this case includes a portion for the weekly input by parents/guardians and school observers for answers to questions relating to the drug evaluation. Physician questionnaires are similarly arranged.
The kit described in Example 1 is used to again evaluate the usefulness of methylphenidate (Ritalin) treatment in a hyperactive child except that all interested parties have the benefit of a set of data generated from a pool of patients having a similar need for treatment. […]

[6] = test system: patients with the same disorder (hyperactive child); test: pooled SPAS database and follow-up of patients continued on methylphenidate 40 mg daily; assay type: in vivo, human
Experimental: All results obtained from the data are compared against the results provided by data amassed from a pool of about 200 patients with the same disorder. If, of these 200 patients, 55 experience encouraging results (along with the current patient) they are continued on 40 mg daily treatment. If, of these 55 patients, 5 are lost to follow-up, with 50 remaining for prospective evaluation, the physician continues the patient on 40 mg methylphenidate daily based solely on the isolated SPAS single-patient drug trial results. The physician then reviews the pooled data on the 50 patients. This will be done to understand under what circumstances this individual patient is likely to continue to show benefit from methylphenidate 40 mg treatment, and what conditions lead to treatment failure.
If for example, the pool of 50 patients who continue treatment have the following scores following the original SPAS testing:
All 50 patients are followed up by telephone interview monthly for nine months or more, and outcomes are prospectively documented.

[7] = test system: hypertensive person; test: double-blind single-patient trial of sustained release verapamil vs sustained release propranolol; assay type: in vivo, human; conditions: for mean systolic blood pressure increases: verapamil 240 mg once daily vs propranolol 180 mg once daily; for mean systolic blood pressure increases / mean diastolic pressure: little difference between drugs; for mean diastolic pressure: throughout the six week trial
Experimental: In this example, the validity of using a sustained release formulation of verapamil 240 mg once daily as a therapeutic alternative to sustained release propranolol 180 mg once daily in a hypertensive person is shown. The trial during which the two medications are randomly administered in a double-blind manner is six weeks. The questionnaire used is set up in a manner similar to that described in above examples except that the questions elicit information related to the disease of hypertension. Blood pressure and adverse event reports are taken daily by the patient. […] Sleepiness is reported at equal rates for both drugs. All values are statistically insignificant and the therapeutic alternative selection is objectively validated.

[8] = pool of 50 patients who continue treatment

For CCOC(=O)N1CCC(=C2c3ccc(Cl)cc3CCc3cccnc32)CC1 [CL, loratidine], the incidence of sedation [1] was 2 on a 3 point scale.

In the case of CN(C)CCC(c1ccc(Cl)cc1)c1ccccn1 (stereo not shown) [CM, chlorpheniramine maleate], the patients well maintained [2] is reported as 37 of the 40, the “patient's symptoms on reevaluation” value ([1]; 6 and 12 months post-initiation of CM treatment) is reported as “well maintained” and the incidence of sedation [1] is reported as 2 on a 3 point scale. For the same molecule, the “most bothersome symptom, sneezing” value ([1]; person, dust mite protein allergy) was “similarly and effectively controlled”.

For COc1ccc2c3c1O[C@H]1[C@@H](O)C=C[C@H]4[C@@H](C2)N(C)CC[C@@]341 [codeine], the “difference of liking score vs placebo” value [3] was 2 units, the liking score [3] was 3 out of 5 and the became addicted ([4]; Caucasian female patients 30 to 40 years with 0 unit difference) was 10 out of 1250. The became addicted ([4]; black male patients 40 to 50 years old with 2-unit difference, treated with codeine) was 25 out of 600 and the became addicted ([4]; similar patients with 3 unit differences) was 50 out of 110.

CN1C(=O)CN=C(c2ccccc2)c2cc(Cl)ccc21 [diazepam] was tested, and the “difference of liking score vs placebo” value [3] was 0 units, the liking score [3] was 4 out of 5 and the “level of addiction on follow-up of similar patients” value [4] was “comparatively low level of addiction”.

For COC(=O)C(c1ccccc1)C1CCCCN1 (stereo not shown) [methylphenidate], the “patient's attention span” value ([5]; 40 mg daily as 10 mg four times daily, periods when methylphenidate is given vs placebo) was “improved substantially”, the teacher comments ([5]; during methylphenidate dosing periods) was “corroborate improved attention span” and the sleep patterns ([5]; during methylphenidate periods, 40 mg daily) was “statistically altered”. For the same molecule, the “show severe episodes of bizarre behaviors” value ([6]; patients with statistically altered sleep patterns on SPAS testing, within two months) was 90%, the “patients experience grand mal seizures” value ([6]; patients with statistically altered sleep patterns, within two months) was “two” and the “Sleep Patterns: have been statistically altered” value [6, 8] was 50%. For the same molecule, the “Sleep Patterns: have not been statistically altered” value [6, 8] was 50%, the “Teacher Comments: corroborate improved attention span” value [6, 8] was 80% and the “Teacher Comments: do not corroborate improved attention span” value [6, 8] was 20%. The “Attention Span: have substantial improvement” value ([6]; pool of 50 patients who continue treatment, 40 mg daily) was 100%.

CN1CCCC1c1cccnc1 (stereo not shown) [nicotine] was tested, and the “difference of liking score vs placebo” value [3] was 3 units, the liking score [3] was 4 out of 5 and the are smokers ([4]; female Caucasian patients 15 to 17 years old with similar 3-unit difference) was 820 out of 975.

In the case of CC(C)NCC(O)COc1cccc2ccccc12 (stereo not shown) [propranolol], the sleepiness reported ([7]; human, in vivo) is reported as “equal rates”, the “mean systolic blood pressure increases” value ([7]; six week trial) is reported as 3% and the mean diastolic pressure [7] is reported as “essentially stable”.

C=CCC1(C(C)CCC)C(=O)NC(=O)NC1=O (stereo not shown) [secobarbital] was tested, and the “difference in liking scores, diazepam compared to secobarbital” value ([3]; same patient) was “greater addiction potential” and the “level of addiction on follow-up of similar patients” value [4] was “high level of addiction”.

With COc1ccc(CCN(C)CCCC(C#N)(c2ccc(OC)c(OC)c2)C(C)C)cc1OC (stereo not shown) [verapamil] the sleepiness reported ([7]; six week trial, both drugs) was “equal rates”, the “mean systolic blood pressure increases” value ([7]; six week trial) was 3% and the mean diastolic pressure [7] was “essentially stable”.
